Assay results published in US7872004B2, “6-(heterocyclyl-substituted benzyl)-4-oxoquinoline compound and use thereof as HIV integrase inhibitor” (Japan Tobacco Inc., priority 2006, dated 2011).

Biological target: T1, HIV integrase (Human immunodeficiency virus type 1 group M subtype B, UniProt P12497, F1332H)
T1 construct: HIV integrase full length gene; made in house; host or cells: Escherichia coli BL21(DE3)
Experiment: Determination of enzyme (HIV integrase) inhibitory activity
Format: biochemical, HIV (Human Immunodeficiency Virus (type 1))
Conditions: recombinant integrase protein (F185H), strand transfer plate assay, absorbance at 450 nm

| Compound | IC50 [nM] |
| --- | --- |
| CCc1cc2c(cc1Cc1cc(N3CCCC3=O)cc(Cl)c1F)c(=O)c(C(=O)O)cn2[C@H](CO)C(C)(C)C [Example 52, 6-[3-chloro-2-fluoro-5-(2-oxopyrrolidin-1-yl)benzyl]-7-ethyl-1-((S)-1-hydroxymethyl-2,2-dimethylpropyl)-4-oxo-1,4-dihydroquinoline-3-carboxylic acid] | 10 to 100 |
| CC(C)(C)[C@@H](CO)n1cc(C(=O)O)c(=O)c2cc(Cc3cc(N4CCOCC4)cc(Cl)c3F)ccc21 [Example 53, 6-[3-chloro-2-fluoro-5-(morpholin-4-yl)benzyl]-1-((S)-1-hydroxymethyl-2,2-dimethylpropyl)-4-oxo-1,4-dihydroquinoline-3-carboxylic acid] | < 10 |
| CC(C)(C)[C@@H](CO)n1cc(C(=O)O)c(=O)c2cc(Cc3cc(N4CCCC4=O)c(F)c(Cl)c3F)ccc21 [Example 54, 6-[3-chloro-2,4-difluoro-5-(2-oxopyrrolidin-1-yl)benzyl]-1-((S)-1-hydroxymethyl-2,2-dimethylpropyl)-4-oxo-1,4-dihydroquinoline-3-carboxylic acid] | < 10 |
| CCc1cc2c(cc1Cc1cc(N3CCCC3=O)c(F)c(Cl)c1F)c(=O)c(C(=O)O)cn2[C@H](CO)C(C)(C)C [Example 55, 6-[3-chloro-2,4-difluoro-5-(2-oxopyrrolidin-1-yl)benzyl]-7-ethyl-1-((S)-1-hydroxymethyl-2,2-dimethylpropyl)-4-oxo-1,4-dihydroquinoline-3-carboxylic acid] | 10 to 100 |
| CC(C)(C)[C@@H](CO)n1cc(C(=O)O)c(=O)c2cc(Cc3cc(N4CCOCC4)c(F)c(Cl)c3F)ccc21 [Example 56, 6-[3-chloro-2,4-difluoro-5-(morpholin-4-yl)benzyl]-1-((S)-1-hydroxymethyl-2,2-dimethylpropyl)-4-oxo-1,4-dihydroquinoline-3-carboxylic acid] | < 10 |
| COc1cc2c(cc1Cc1cc(-c3noc(C)n3)cc(Cl)c1F)c(=O)c(C(=O)O)cn2[C@H](CO)C(C)C [Example 57, 6-[3-chloro-2-fluoro-5-(5-methyl-1,2,4-oxadiazol-3-yl)benzyl]-1-((S)-1-hydroxymethyl-2-methylpropyl)-7-methoxy-4-oxo-1,4-dihydroquinoline-3-carboxylic acid] | < 10 |
| CC(C)(C)[C@H](CO)n1cc(C(=O)O)c(=O)c2cc(Cc3cc(N4CCOCC4)c(F)c(Cl)c3F)ccc21 [Example 59, 6-[3-chloro-2,4-difluoro-5-(morpholin-4-yl)benzyl]-1-((R)-1-hydroxymethyl-2,2-dimethylpropyl)-4-oxo-1,4-dihydroquinoline-3-carboxylic acid] | 10 to 100 |
